According to PMC9254496, “Crystal structure of mevalonate 3,5-bisphosphate decarboxylase reveals insight into the evolution of decarboxylases in the mevalonate metabolic pathways” (The Journal of Biological Chemistry, 2022):

Experiments:
[1] = target: T1, PtoMBD (Picrophilus oshimae, UniProt Q6L1T9, R218A/R220A); experiment: radio-TLC activity assay; type: biochemical; details: labelled compound; 1 μM GGPP, 5 mM MgCl2, sodium acetate pH 5.5, 60 °C
T1 construct: gene PTO0478

[2] = target: T2, PtoMBD (Picrophilus oshimae, UniProt Q6L1T9, D309N); experiment: radio-TLC activity assay; type: biochemical; details: labelled compound; 1 μM GGPP, 5 mM MgCl2, sodium acetate pH 5.5, 60 °C
T2 construct: gene PTO0478
T2 sequence (Q6L1T9 whole entry D309N): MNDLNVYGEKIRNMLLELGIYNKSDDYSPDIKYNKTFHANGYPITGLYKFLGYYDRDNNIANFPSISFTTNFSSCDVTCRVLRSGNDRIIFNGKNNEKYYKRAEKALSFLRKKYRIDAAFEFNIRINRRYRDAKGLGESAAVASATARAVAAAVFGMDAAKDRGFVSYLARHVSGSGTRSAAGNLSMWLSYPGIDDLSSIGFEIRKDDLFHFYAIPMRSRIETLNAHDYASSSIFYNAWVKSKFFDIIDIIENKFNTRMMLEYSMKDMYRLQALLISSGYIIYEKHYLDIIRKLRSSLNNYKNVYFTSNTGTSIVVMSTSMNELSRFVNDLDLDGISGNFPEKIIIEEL

[3] = target: T3, PtoMBD (Picrophilus oshimae, UniProt Q6L1T9, D309T); experiment: radio-TLC activity assay; type: biochemical; details: labelled compound; 1 μM GGPP, 5 mM MgCl2, sodium acetate pH 5.5, 60 °C
T3 construct: gene PTO0478
T3 sequence (Q6L1T9 whole entry D309T): as the sequence (Q6L1T9 whole entry D309N) above, with N309T counted along it

[4] = target: T4, PtoMBD (Picrophilus oshimae, UniProt Q6L1T9); experiment: X-ray crystal structure, […] Å; type: binding; details: endogenous E. coli ligand, identity assumed from density (oleic acid fitted), low occupancy, subunit A only; cavity overlapping ATP site of DMD
T4 construct: gene PTO0478
T4 sequence (Q6L1T9 1-349): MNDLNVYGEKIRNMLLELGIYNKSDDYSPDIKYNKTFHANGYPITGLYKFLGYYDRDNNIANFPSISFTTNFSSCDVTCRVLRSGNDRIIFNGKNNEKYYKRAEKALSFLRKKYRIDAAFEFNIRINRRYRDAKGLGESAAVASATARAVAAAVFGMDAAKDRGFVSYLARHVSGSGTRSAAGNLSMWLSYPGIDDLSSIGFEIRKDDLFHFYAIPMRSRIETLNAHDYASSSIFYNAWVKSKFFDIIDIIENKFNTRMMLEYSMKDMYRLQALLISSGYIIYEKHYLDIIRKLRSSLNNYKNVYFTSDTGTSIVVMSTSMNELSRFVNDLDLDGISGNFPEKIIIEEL

[5] = target: the molecule itself; experiment: SEC; HiLoad 16/600 Superdex 200 prep grade, 20 mM sodium phosphate pH 7.4, 500 mM NaCl, 0.6 ml/min; calibrated with gel filtration markers

T1 sequence (Q6L1T9 whole entry R218A/R220A): as the sequence (Q6L1T9 whole entry D309N) above, with R218A, R220A, N309D counted along it

Molecule: C[C@@](CCOP(=O)(O)O)(CC(=O)O)OP(=O)(O)O [MVA3,5BP]
- MBD activity [1]: the R218A/R220A double mutant was as active as the WT
- MBD activity [2]: mutants D309T and D309N leads to the complete loss of MBD activity
- MBD activity [3]: mutants D309T and D309N leads to the complete loss of MBD activity

Molecule: CCCCCCCC/C=C\CCCCCCCC(=O)O [OLA]
- X-ray crystal structure, 2.2 Å [4]: Oleic acid (OLA) fitted well in the electron density

B1: Picrophilus torridus mevalonate 3,5-bisphosphate decarboxylase (enzyme)
chain: T4 sequence (Q6L1T9 1-349)
notes: Mevalonate 3,5-bisphosphate decarboxylase of Picrophilus torridus, gene pto0478; calculated mass of the tagged protein 42,186 Da; also called PtoMBD; MBD; source: E. coli BL21(DE3), pET28a(+), purified (heat treatment, Ni-NTA, HP-Q for crystallization; heat treatment and Ni-NTA only for size-exclusion chromatography); not shown: polyhistidine, N-terminal, kept
- stoichiometry N [5]: 2
